One data set has as its system ACE. The following applies: cited from earlier work. On the procedure: Peptide LRIPVA from spinach inhibited 50% of the ACE at a concentration as low as 0.38 μM [29]. However, there were also studies reported on similar IC50 value with the current study. […] It was predicted to remain stable throughout the digestion process. […] Jimsheena and Gouda had shown the important role of stere ... || (+ 2 further places)

Data set [1] has as its target T1, Angiotensin I-converting enzyme (ACE) (Homo sapiens, UniProt P12821).
T1 construct: purchased Dojindo Laboratories ACE kit-WST
Description: ACE inhibitory activity assay (ACE kit-WST). It counts as biochemical. The conditions noted are these: synthesised peptide, absorbance 450 nm, triplicate, mean ± standard deviation. The procedure:
(§1) In the current study, ACE inhibitory activity was determined using an ACE inhibitory assay kit (ACE kit-WST, Dojindo Laboratories, Kumamoto, Japan). The assay was carried out according to the protocol provided by the manufacturer. Absorbances of the reactions were measured using a Sunrise® ELISA microplate reader (Tecan, Grödig, Austria) at 450 nm. The ACE inhibitory activity of the samples was calculated using the formula given in the protocol. The concentration of the ACE inhibitor required to inhibit 50% of ACE activity under the above assay conditions was defined as the IC50.
The analysis of ACE inhibitory activity was carried out in triplicate and result was reported as mean ± standard deviation. Mean differences of ACE inhibitory activity in SEC fractions was analyzed using one-way ANOVA in Statgraphics Plus 3.0 at p < 0.05.

The target in data set [2] is T1, Angiotensin I-converting enzyme (ACE). As to the kind of experiment: ACE inhibitory activity after simulated gastrointestinal digestion. It counts as biochemical. The conditions noted are these: mean, n = 3; for inhibition at 100 µg/mL (stock): 0.1 mg/ml, pepsin 2.5 hrs, then pH 8.0, 0.025% chymotrypsin and 0.025% trypsin, another 2.5 hrs, read-out: ACE inhibitory activity after pepsin-pancreatin digestion; for inhibition at 100 µg/mL (stock) / ACE inhibitory activity after digestion by pepsin: 37°C; for ACE inhibitory activity without gastrointestinal digestion (control): peptide solution 0.1 mg/ml incubated in buffer solutions (HCl and potassium phosphate buffer); for ACE inhibitory activity after digestion by pepsin: peptide solution 0.1 mg/ml with 0.05% pepsin (0.1 M HCl, pH 2.0), 2.5 hrs. On the procedure:
as §1
(§2) The stability of the synthesised peptides against gastrointestinal proteases was assessed in vitro by the method of Wu and Ding. The peptide solution (0.1 mg/ml, 0.5 ml) was incubated with 0.5 ml of a 0.05% pepsin solution (0.1 M HCl at pH 2.0) for 2.5 hrs at 37°C. In the successive pepsin-pancreatin digestion test, the peptide solution was adjusted to pH 8.0 after pepsin digestion. Then, 0.5 ml of pancreatin solution [potassium phosphate buffer (0.1 M, pH 8.0) containing 0.025% (w/v) chymotrypsin and 0.025% (w/v) trypsin] was added to the solution. The mixture was incubated for another 2.5 hrs at 37°C. The control (without digestion) consisted of peptide solution incubated in buffer solutions (HCl and potassium phosphate buffer) and was carried out alongside the experiment. After enzymatic treatment, the pepsin solution and pepsin-pancreatin solution were boiled for 10 min to stop the digestion and then centrifuged at 10,000 rpm for 10 min. The supernatants were freeze-dried and used for the measurement of ACE inhibitory activity. The stability of the purified peptides against gastrointestinal enzymes was analysed by SEC.
Figure 3 Effect of simulated gastrointestinal digestion on the ACE inhibitory activity of peptides AHEPVK and GPSMR. Control: The peptide solutions (0.1 mg/ml) were incubated in buffer solutions (HCl and potassium phosphate buffer). P: The peptide solutions were incubated with 0.05% pepsin solution for 2.5 hrs at 37°C. P + T + C: The peptide solutions were successively digested with pepsin for 2.5 hrs. They were further incubated in pancreatin solution for another 2.5 hrs at 37°C. The ACE inhibitory activity are expressed as mean ± standard deviation (n = 3).

In data set [3] the test system is pepsin, trypsin and chymotrypsin. As to the kind of experiment: Stability against gastrointestinal enzymes observed by SEC. It counts as in vitro ADME. The conditions noted are these: 0.1 mg/ml; pepsin pH 2.0 2.5 hrs, then trypsin + chymotrypsin pH 8.0 2.5 hrs, 37°C; Biosep SEC-S2000, UV 214 nm. The procedure:
as §2
Figure 4 Stability of peptide AHEPVK against gastrointestinal enzymes observed by SEC chromatograms. Separation was performed on a Biosep SEC-S2000 column (300 × 7.8 mm). Mobile phase consisted of 45% acetonitrile containing 0.1% TFA eluted at a flow rate of 1.0 ml/min. […]

Where [4] appears, read: peptides from milk and bonita fish.

The text below walks through data of paper PMC3827828, “Novel angiotensin I-converting enzyme inhibitory peptides derived from an edible mushroom, Pleurotus cystidiosus O.K. Miller identified by LC-MS/MS” (BMC Complementary and Alternative Medicine, 2013).

“Also recorded” adds a separate entry of the source. Where two headings read alike, the source gives them in different places. Peptide text beside a SMILES is read from it.

T1 sequence (P12821 30-1306, species assumed): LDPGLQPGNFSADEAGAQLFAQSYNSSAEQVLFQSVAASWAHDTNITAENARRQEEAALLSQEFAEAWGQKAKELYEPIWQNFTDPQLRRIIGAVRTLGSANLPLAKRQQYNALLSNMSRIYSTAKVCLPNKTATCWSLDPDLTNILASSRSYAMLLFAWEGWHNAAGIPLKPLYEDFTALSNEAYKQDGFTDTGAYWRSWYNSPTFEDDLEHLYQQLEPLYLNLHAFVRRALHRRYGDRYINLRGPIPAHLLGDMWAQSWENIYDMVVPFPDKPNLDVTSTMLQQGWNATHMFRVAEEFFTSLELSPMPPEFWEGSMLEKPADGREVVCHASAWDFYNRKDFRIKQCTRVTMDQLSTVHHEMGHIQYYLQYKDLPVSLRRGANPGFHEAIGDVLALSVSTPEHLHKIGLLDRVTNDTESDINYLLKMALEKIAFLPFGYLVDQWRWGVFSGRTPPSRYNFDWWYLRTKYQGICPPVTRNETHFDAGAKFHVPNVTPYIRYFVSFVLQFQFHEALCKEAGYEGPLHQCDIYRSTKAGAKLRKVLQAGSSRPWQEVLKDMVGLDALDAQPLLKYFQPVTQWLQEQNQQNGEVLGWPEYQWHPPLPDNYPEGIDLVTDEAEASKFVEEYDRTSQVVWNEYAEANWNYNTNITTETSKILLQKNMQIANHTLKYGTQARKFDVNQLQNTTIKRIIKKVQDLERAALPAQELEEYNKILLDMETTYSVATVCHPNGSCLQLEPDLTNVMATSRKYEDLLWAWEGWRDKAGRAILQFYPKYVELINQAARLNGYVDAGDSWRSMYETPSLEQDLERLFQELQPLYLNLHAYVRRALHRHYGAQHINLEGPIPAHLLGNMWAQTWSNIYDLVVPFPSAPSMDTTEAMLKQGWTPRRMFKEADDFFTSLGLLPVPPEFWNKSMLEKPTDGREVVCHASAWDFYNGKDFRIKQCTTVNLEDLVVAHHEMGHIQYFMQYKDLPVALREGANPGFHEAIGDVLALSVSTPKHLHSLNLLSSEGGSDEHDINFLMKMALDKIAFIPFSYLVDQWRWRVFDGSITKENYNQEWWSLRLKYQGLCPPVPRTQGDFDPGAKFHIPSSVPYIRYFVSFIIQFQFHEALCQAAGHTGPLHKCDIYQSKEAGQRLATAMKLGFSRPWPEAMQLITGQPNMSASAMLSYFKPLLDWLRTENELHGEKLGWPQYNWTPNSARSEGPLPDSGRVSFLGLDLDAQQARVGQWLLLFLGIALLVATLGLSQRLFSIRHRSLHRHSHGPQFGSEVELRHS

Take LKPNM [pentapeptide from bonita fish]: in the data set on ACE (setting [4]), the IC50 (in general, the concentration that gives 50% inhibition) is 2.4 µM.
Molecule `CSCC[C@H](NC(=O)[C@H](CO)NC(=O)[C@@H]1CCCN1C(=O)CN)C(=O)N[C@@H](CCCNC(=N)N)C(=O)O` [GPSMR] (H-GPSMR-OH) gave an IC50 in data set [1] of 278 µM. Also, in data set [2], the inhibition at 100 µg/mL (stock) was 96%, the “ACE inhibitory activity without gastrointestinal digestion (control)” value is listed as 67.08% and the “ACE inhibitory activity after digestion by pepsin” value is listed as 92.22%. In data set [3], the “Stability of peptide against gastrointestinal enzymes (SEC chromatograms)” value is “hydrolysed after digestion; also recorded: hydrolysed into smaller fragments”.
The matching figures for `CC(C)[C@H](NC(=O)[C@@H]1CCCN1C(=O)[C@H](CCC(=O)O)NC(=O)[C@H](Cc1c[nH]cn1)NC(=O)[C@H](C)N)C(=O)N[C@@H](CCCCN)C(=O)O` [AHEPVK] (H-AHEPVK-OH): 62.8 µM, 95.9%, 80.27%, 95.38% and “stable throughout gastrointestinal digestion; also recorded: confirmed the stability of AHEPVK against digestive enzymes; also recorded: remained stable following gastrointestinal digestion”.
For GTEKC [peptide from sweet potato], the IC50 with ACE (peptides from sweet potato) was 61.7 µM.
Regarding GPCSR [peptide from sweet potato], the IC50 in the data set on ACE (peptides from sweet potato) was 276 µM.
As to LRIPVA [peptide from spinach], the IC50 in the data set with ACE (peptide from spinach) is 0.38 µM.
Regarding PYVRYL [hexapeptide from milk], the IC50 in the data set on ACE (setting [4]) was 2.4 µM.
As to `C[C@H](CS)C(=O)N1CCC[C@H]1C(=O)O` [captopril], the “Inhibition pattern against ACE” value in the data set with ACE is reported as “competitive manner”.
